Test results as given in patent US20160361326A1, “METHOD OF TREATING HYPERGLYCEMIA AND DIABETES AND OF INCREASING ADSORPTION AND EFFICACY OF VITAMIN D” (Board of Supervisors of Louisiana State University and …, priority 2015, published 2016).

What was measured:
THP-1 monocytes = assay: L-cysteine and vitamin D supplementation in control and high-glucose treated THP-1 monocytes; type: cell-based, human
Description: Control cells were treated with mannitol, which is considered an osmolarity control. To investigate the role of glutathione, siRNA specific for glutamate cysteine ligase catalytic unit (the catalytic component of the enzyme) was used to knock down the enzyme and induce glutathione deficiency. Complexes of glutamate cysteine ligase catalytic unit siRNA (Santa Cruz Biotechnology) and lipofectamine (Invitrogen) were allowed to form in culture flasks in serum free media, to which cells suspended in serum free media were added. After 24 hours complete media with serum was added and the cells were then treated as described in the figures.
25-hydroxy vitamin D (calcidiol) blood test is used to determine how much vitamin D is in the body. The blood concentration of calcidiol is considered an standard indicator of vitamin D status. The kit includes polyclonal antibodies that detect total vitamin D binding protein levels. Levels of glutathione and L-cysteine were determined using HPLC. Details of immunoblotting and cell viability are similar to those given in the publication Vitamin D and 1-cysteine levels correlate positively with glutathione and negatively with insulin resistance levels in the blood of type 2 diabetic patients. Eur J Clin Nutr 68: 1148-1153, 2014 by Jain S K, Micinski D, Huning L, Kahlon G, Bass P F, and Levine SN—such described methods incorporated by reference herein. The antibodies for glutamate cysteine ligase catalytic unit (73 KD), vitamin D binding protein (52 KD), and vitamin D receptor (48 KD) were purchased from Abcam (Cambridge, Mass.).

FL83B hepatocytes = assay: L-cysteine supplementation in FL83B hepatocytes treated with control and high glucose; type: cell-based, mouse
Description: The FL83B hepatocyte cell line was purchased from American Type Culture Collection (ATCC, Manassas, Va., USA). FL83B hepatocytes were cultured and maintained in F-12K complete medium. […] Control cells were treated with mannitol, which is considered an osmolarity control in some experiments. After 24 h, complete media with serum was added and the cells were then treated as described in the figures.
(§1) Levels of glutathione and L-cysteine were determined using HPLC. In cell culture studies, the whole cell suspension was processed for the glutathione assay. Cell viability was determined using the Alamar Blue method (Alamar Biosciences, Sacramento, Calif., USA). Details of immunoblotting are similar to those known in the art. The antibodies for vitamin D binding protein (52 KD), β-Actin (40 KD), glutamate-cysteine ligase catalytic subunit (GCLC) (75 KD), and vitamin D receptor (48 KD) were purchased from Abcam (Cambridge, Mass., USA). The intensity of each immunoblotting band was measured using the histogram tool of Adobe Photoshop CS5.
mRNA extraction and cDNA synthesis were done as described in the previous section. The following primers were used for hepatocytes: vitamin D binding protein (also called GC) (Mm04243540_m1), vitamin D receptor (Mm00437297_m1), GCLC (Mm00802655_m1), and GAPDH (Mm03302249_g1) and were purchased from Invitrogen. Sequence of oligonucleotides of primers used is given in Supporting Information Material. The relative fold change of mRNA was calculated using the relative quantification (ΔΔCT) method and then normalized to % control for representation.

[1] = test system: Zucker diabetic fatty rats; assay: L-cysteine supplementation in Zucker diabetic fatty rats: plasma levels of VDBP, 25(OH) vitamin D, glutathione, MCP-1, CRP; type: in vivo, rat; conditions: 1 mg/kg BW daily oral gavage, 8 weeks
Text: (§2) The animal protocol was approved by the institutional Animal Welfare Committee (P-15-006). All procedures performed were in accordance with the ethical standards of the institution. Male Zucker diabetic fatty rats at an age of 5 weeks and weighing about 200-220 g were purchased from Charles River (Wilmington, Mass., USA). The animals were allowed to acclimate to the environmental and handling conditions for 2 days. Computer generated randomization was used to divide rats into two groups, after which they were housed and labelled in individual cages. After overnight fasting they were weighed and tested for hyperglycemia by measuring their blood glucose concentration. Blood was collected via tail incision and the blood glucose levels were measured using an Advantage Accu-chek glucometer (Boehringer Mannheim Corp., Indianapolis, Ind., USA). One group of rats was labeled as diabetic controls and gavaged with saline alone. […] A third group included in the study, called the control group, consisted of male Sprague Dawley (SD) rats who were also gavaged daily with saline. […] Blood glucose and body weight were monitored weekly in all rats. Based on any change in their weights the L-cysteine supplementation dose was adjusted accordingly every week to maintain a similar dose per Kg BW over the entire period of the study.
(§3) All Zucker diabetic fatty rats were fed a high calorie Purina 5008 lab chow diet (Charles River, Wilmington, Mass., USA). This diet contained 3.4 IU vitamin D3 per gram diet. Sprague Dawley rats were fed a standard 8640 lab chow diet, which contained 3 IU vitamin D3 per gram diet (Harlan, Indianapolis, Ind., USA); both Zucker diabetic fatty and Sprague Dawley rats were maintained at 22 ±2° C. with 12:12-h light/dark cycles. Food intake of all rats was monitored. The control group contained six rats. There were also six rats each in the placebo and L-cysteine-supplemented diabetic rat groups. At the end of 8 weeks the rats were fasted overnight and euthanized by exposing them to halothane (2-bromo-2-chloro-1,1,1-trifluoroethane). Blood was drawn with a 191/2 gauge needle via cardiac puncture into vacutainer tubes. Aliquots of blood collected from all rats were sent to the clinical laboratory of LSUHSC-Shreveport for blood chemistry profiles, including liver and renal function and red blood cell counts. Plasma was isolated in a 4° C. centrifuge at 3000 rpm for 10 min from blood collected into EDTA tubes. Rat livers were perfused using cold saline. Once extracted, they were labeled appropriately, and stored at −80° C.
Plasma levels of 25(OH) vitamin D, […] were determined using an ELISA kit (Eagle Biosciences, Nashua, N.H., USA). Plasma vitamin D binding protein quantification was carried out using a kit purchased from Alpco (Salem, N.H., USA). The kit includes polyclonal antibodies that detect total vitamin D binding protein levels. The cytokines MCP-1 (R&D Systems Inc., Minneapolis, Minn., USA) and CRP (Alpco) were determined using the sandwich ELISA method and commercially available kits. In the cytokine assay, control samples were analyzed each time to check the variation from plate to plate on different days of analysis. […]
Levels of glutathione and L-cysteine were determined using HPLC. […] Cell viability was determined using the Alamar Blue method (Alamar Biosciences, Sacramento, Calif., USA). […] The intensity of each immunoblotting band was measured using the histogram tool of Adobe Photoshop CS5.

[2] = test system: Zucker diabetic fatty rats; assay: L-cysteine supplementation in Zucker diabetic fatty rats: liver protein and mRNA expression, glutathione, reactive oxygen species; type: in vivo, rat; conditions: 8 weeks
Text: as §2, §3
About 50 mg of liver tissue was weighed and homogenized in 1 mL TRIzol reagent (Invitrogen, Grand Island, N.Y., USA). The RNA extraction was performed according to the instructions provided. The concentration and quality of the extracted RNA were determined on a NanoDrop spectrophotometer (Thermo Scientific, Pittsburgh, Pa., USA). A High Capacity RNA-To-cDNA kit (Invitrogen) was used to synthesize cDNA. QPCR was performed using a 7900HT Real Time PCR system and software (Applied Biosystems, Grand Island, NY, USA) using the FAM-labeled primer/probe set Rn00561256_m1 for vitamin D binding protein (also called GC), Rn00690616_m1 for vitamin D receptor, Rn01754615 ml for CYP2R1, and Rn01775763_g1 for GAPDH (Invitrogen), respectively. The relative fold change of mRNA was calculated using the relative quantification (ΔΔCT) method.
as §1, with “The intensity of each immunoblotting band was measured using the histogram tool of Adobe Photoshop CS5.” left out

[3] = L-cysteine supplementation in Zucker diabetic fatty rats: body weight, plasma lipids, liver and kidney function tests; type: in vivo, rat
Text: as §2, with “rats.” for “rats. Based on any change in their weights the L-cysteine supplementation dose was adjusted accordingly every week to maintain a similar dose per Kg BW over the entire period of the study.”
as §3, with “There were also six rats each in the placebo and L-cysteine-supplemented diabetic rat groups.” left out

[4] = hepatocytes cultured with high glucose (25 mM)
[5] = vs placebo-supplemented diabetic rats
[6] = 1 mg/kg BW daily oral gavage, vs placebo
[7] = 1 mg/kg BW daily gavage for 8 weeks, mean ± SE, n=6
[8] = control and high glucose (25 mM)

## N[C@@H](CS)C(=O)O [L-cysteine]
THP-1 monocytes
  glutathione levels: significant upregulation
FL83B hepatocytes; [4]
  mRNA levels of vitamin D binding protein: upregulation
  mRNA levels of vitamin D receptor: upregulation
  protein expression of vitamin D binding protein: upregulation
  protein expression of vitamin D receptor: upregulation
FL83B hepatocytes; hepatocytes, high glucose (25 mM)
  decrease in glutathione levels after high glucose treatment: prevented
[1]; vs placebo
  plasma glutathione: increase
[1]; [5]
  blood levels of 25(OH) vitamin D: significantly higher
  blood levels of vitamin D binding protein: significantly higher
[1]; plasma, vs placebo
  CRP: decrease
  MCP-1: decrease
[2]; [6]
  glutathione levels in liver: significantly higher
  mRNA expression of vitamin D 25-hydroxylase (CYP2R1) in liver: significantly higher
  mRNA expression of vitamin D binding protein in liver: significantly higher
  protein expression of vitamin D 25-hydroxylase (CYP2R1) in liver: significantly higher
  protein expression of vitamin D binding protein in liver: significantly higher
  reactive oxygen species levels in liver: significantly lower
[2]; 1 mg/kg BW, higher vs placebo, p=0.17
  expression of protein for vitamin D receptor in liver: not statistically significant
[2]; 1 mg/kg BW, higher vs placebo, p=0.30
  expression of mRNA for vitamin D receptor in liver: not statistically significant
[3]; [7]
  Body weight: 346 ± 6.3 g
  Triglycerides: 509 ± 55 mg/dL
[3]; 1 mg/kg BW daily gavage for 8 weeks, vs placebo
  side effects of L-cysteine supplementation: no negative side effects
[3]; rat, in vivo, 1 mg/kg
  Calcium: 9.9 ± 0.4 mg/dL

## C=C1CC[C@H](O)C/C1=C/C=C1\CCC[C@]2(C)[C@@H]([C@H](C)CCCC(C)C)CC[C@@H]12 [vitamin D, cholecalciferol]
THP-1 monocytes; [8]
  vitamin D binding protein expression (VDBP/actin ratio): increase
  vitamin D receptor protein expression (VDR/actin ratio): increase
